What all share (assay type): cell-based
Assay [1] has as its target T1, DUB activity in cells (NCI-H929, Z138, MM.1S, A375) (Homo sapiens, UniProt Q93008).
T1 construct: endogenous in cells; host or cells: NCI-H929, Z138, MM.1S, A375
The assay can be described thus: HA-Ubiquitin-Vinylsulfone (HA-Ub-VS) cell labeling assay. The note with it: compound tested at 5 μM; HA-Ub-VS labeling of USP9x in cells. An outline of the steps: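 NCI-H929, Z138, MM.1S or A375 cells (1–2×10^6) treated 2–6 h at 37 °C with compound in 0.5% DMSO, here 5 μM. Lysates labeled with HA-Ub-VS for 15–60 min at 37 °C. Labeled DUBs resolved by SDS-PAGE and quantified by anti-HA and anti-β-actin immunoblot with infrared detection.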

Assay [2] has as its system Mcl-1 expression in cells (NCI-H929, Z138, MM.1S, A-375). The assay can be described thus: Analysis of Mcl-1 expression by Western blotting. The note with it: compound tested at 5 μM; Western blot. In a few lines:
(§1)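 NCI-H929, Z138, MM.1S and A-375 cells were treated with compounds at 5 μM, and lysates were Western blotted with anti-Mcl-1 and anti-PARP antibodies, quantified by infrared fluorescence. Activity is a significant drop in Mcl-1 and the appearance of cleaved PARP, each relative to vehicle-treated cells.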
A general note: A western blot detects proteins with antibodies after separation by electrophoresis.

Assay [3] concerns PARP cleavage in cells (NCI-H929, Z138, MM.1S, A-375). The assay can be described thus: Analysis of PARP cleavage by Western blotting. The following applies: compound tested at 5 μM; Western blot. An outline of the steps:
as §1

Bounds are passed on as bounds.

T1 sequence (Q93008 whole entry): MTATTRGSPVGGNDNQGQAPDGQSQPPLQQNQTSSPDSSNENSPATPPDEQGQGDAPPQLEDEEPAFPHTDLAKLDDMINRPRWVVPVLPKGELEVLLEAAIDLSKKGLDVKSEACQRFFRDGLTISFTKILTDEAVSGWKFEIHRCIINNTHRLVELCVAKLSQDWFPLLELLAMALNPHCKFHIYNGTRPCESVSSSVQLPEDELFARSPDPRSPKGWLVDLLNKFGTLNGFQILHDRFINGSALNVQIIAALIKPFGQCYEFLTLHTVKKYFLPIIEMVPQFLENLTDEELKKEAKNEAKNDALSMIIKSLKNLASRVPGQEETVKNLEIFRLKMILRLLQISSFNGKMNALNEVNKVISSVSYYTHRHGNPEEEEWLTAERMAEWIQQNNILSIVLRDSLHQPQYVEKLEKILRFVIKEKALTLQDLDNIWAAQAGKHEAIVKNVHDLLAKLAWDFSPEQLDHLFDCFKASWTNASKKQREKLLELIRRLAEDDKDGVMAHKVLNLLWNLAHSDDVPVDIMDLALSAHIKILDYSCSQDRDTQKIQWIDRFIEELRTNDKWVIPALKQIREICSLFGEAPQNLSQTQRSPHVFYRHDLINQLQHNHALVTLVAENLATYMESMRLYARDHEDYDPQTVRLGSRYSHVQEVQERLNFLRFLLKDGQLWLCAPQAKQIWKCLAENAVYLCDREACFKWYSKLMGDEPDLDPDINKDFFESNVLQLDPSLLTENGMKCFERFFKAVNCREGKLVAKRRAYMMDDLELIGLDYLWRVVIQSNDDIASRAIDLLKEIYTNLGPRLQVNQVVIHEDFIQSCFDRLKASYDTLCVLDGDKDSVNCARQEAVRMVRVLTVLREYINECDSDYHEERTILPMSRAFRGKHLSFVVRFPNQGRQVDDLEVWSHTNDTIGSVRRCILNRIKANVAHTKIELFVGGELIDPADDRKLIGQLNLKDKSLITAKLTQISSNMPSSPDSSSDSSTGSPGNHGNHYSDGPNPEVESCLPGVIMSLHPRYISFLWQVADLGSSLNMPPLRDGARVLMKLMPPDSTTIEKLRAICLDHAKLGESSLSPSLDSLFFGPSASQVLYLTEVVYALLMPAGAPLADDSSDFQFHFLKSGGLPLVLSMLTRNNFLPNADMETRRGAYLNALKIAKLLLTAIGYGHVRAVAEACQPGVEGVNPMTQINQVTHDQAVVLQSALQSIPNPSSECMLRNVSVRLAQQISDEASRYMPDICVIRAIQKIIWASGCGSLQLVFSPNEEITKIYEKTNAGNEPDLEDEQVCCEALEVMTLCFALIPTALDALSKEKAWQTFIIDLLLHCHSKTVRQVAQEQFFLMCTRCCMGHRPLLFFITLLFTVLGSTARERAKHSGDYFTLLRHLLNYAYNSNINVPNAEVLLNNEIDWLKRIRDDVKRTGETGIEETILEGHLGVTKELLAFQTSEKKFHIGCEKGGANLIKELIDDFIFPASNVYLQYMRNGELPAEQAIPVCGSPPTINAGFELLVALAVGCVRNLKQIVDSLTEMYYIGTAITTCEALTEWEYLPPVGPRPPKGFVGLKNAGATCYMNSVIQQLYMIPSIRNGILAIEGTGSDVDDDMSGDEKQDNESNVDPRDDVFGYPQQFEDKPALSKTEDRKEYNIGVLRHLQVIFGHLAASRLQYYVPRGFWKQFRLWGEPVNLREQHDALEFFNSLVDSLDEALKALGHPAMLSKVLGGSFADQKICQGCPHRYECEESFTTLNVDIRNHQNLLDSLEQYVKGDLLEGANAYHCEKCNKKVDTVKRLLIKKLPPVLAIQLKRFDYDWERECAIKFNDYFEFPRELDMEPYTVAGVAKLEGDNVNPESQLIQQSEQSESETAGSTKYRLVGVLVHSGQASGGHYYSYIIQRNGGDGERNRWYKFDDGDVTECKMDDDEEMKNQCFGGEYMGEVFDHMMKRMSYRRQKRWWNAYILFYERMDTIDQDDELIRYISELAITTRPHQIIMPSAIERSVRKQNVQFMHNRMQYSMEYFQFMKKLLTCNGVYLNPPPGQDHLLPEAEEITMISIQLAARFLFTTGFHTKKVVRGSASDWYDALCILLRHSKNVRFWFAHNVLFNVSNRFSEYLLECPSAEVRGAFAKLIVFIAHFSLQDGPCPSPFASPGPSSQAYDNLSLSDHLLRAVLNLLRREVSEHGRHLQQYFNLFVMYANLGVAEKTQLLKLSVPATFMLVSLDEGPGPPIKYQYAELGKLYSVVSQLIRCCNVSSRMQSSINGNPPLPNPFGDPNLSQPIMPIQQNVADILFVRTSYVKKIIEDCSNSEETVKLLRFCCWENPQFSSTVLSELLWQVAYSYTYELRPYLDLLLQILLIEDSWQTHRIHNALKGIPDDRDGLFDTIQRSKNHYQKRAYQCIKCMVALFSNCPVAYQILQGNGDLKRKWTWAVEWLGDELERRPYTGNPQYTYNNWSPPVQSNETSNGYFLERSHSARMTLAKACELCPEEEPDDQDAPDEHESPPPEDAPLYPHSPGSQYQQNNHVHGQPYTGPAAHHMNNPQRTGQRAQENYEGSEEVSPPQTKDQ

Consider `N#C/C(=C\c1cccc(Br)n1)C(=O)NC1(c2ccc(C#CC3(O)CCCC3)cc2)CCCC1` [Compound 76, (E)-3-(6-bromopyridin-2-yl)-2-cyano-N-(1-(4-((1-hydroxycyclopentyl)ethynyl)phenyl)cyclopentyl)acrylamide], for which the inhibition at 5 µM in assay [1] and in assay [2] was no less than 75% each time. In assay [3], the “PARP cleavage % Inhibition” value is reported as “A (A is ≧75% inhibition)”.
For `CC(C)(C)OC(=O)COc1ccc(C2(NC(=O)/C(C#N)=C/c3cccc(Br)n3)CCCC2)cc1` [Compound 88, (E)-tert-butyl 2-(4-(1-(3-(6-bromopyridin-2-yl)-2-cyanoacrylamido)cyclopentyl)phenoxy)acetate], the inhibition at 5 µM in assay [1] and in assay [2] was no less than 75% in each case. In assay [3], the “PARP cleavage % Inhibition” value is listed as “A (A is ≧75% inhibition)”.
In the case of `CC(C)(C)OC(=O)c1cccc(-c2cccc(/C=C(\C#N)C(=O)NC3(c4ccccc4)CCCC3)n2)c1` [Compound 56, (E)-tert-butyl 3-(6-(2-cyano-3-oxo-3-((1-phenylcyclopentyl)amino)prop-1-en-1-yl)pyridin-2-yl)benzoate], the inhibition at 5 µM in assay [1] is 50 to 75%; in assay [2], no less than 75%. Also, in assay [3], the “PARP cleavage % Inhibition” value is “A (A is ≧75% inhibition)”.
Consider `N#C/C(=C\c1cccc(Br)n1)C(=O)NC1(c2cccnc2)CCCC1` [Compound 3-1, (E)-3-(6-bromopyridin-2-yl)-2-cyano-N-(1-(pyridin-3-yl)cyclopentyl) acrylamide], for which the inhibition at 5 µM in assay [1] and in assay [2] was less than 25% each time. Also, the “PARP cleavage % Inhibition” value in assay [3] was “B (B is 50% to 75% inhibition)”.
Consider `N#C/C(=C\c1ccc(O)cc1)C(=O)NC1(c2ccccc2)CCCC1` [Compound 13, (E)-3-(4-Hydroxyphenyl)-2-cyano-N-(1-phenylcyclopentyl)acrylamide], for which the inhibition at 5 µM in assay [1] and in assay [2] was less than 25% throughout. In addition, the “PARP cleavage % Inhibition” value in assay [3] is given as “D (D is <25% inhibition)”.
For the molecule `N#C/C(=C\c1cccc(N2CCCC2)n1)C(=O)NC1(c2ccccc2)CCCC1` [Compound 83, (E)-2-cyano-N-(1-phenylcyclopentyl)-3-(6-(pyrrolidin-1-yl)pyridin-2-yl) acrylamide], the inhibition at 5 µM in assay [1] and in assay [2] was less than 25% in each case. Further, in assay [3], the “PARP cleavage % Inhibition” value is given as “D (D is <25% inhibition)”.
Turning to `COC(=O)c1ccc(C2(NC(=O)/C(C#N)=C/c3cccc(Br)n3)CCCC2)cc1` [Compound 41, (E)-methyl 4-(1-(3-(6-bromopyridin-2-yl)-2-cyanoacrylamido)cyclopentyl)benzoate], the inhibition at 5 µM in assay [1] was 50 to 75%; in assay [2] it was no less than 75%. Further, in assay [3], the “PARP cleavage % Inhibition” value is given as “A (A is ≧75% inhibition)”.
As to `N#C/C(=C\c1ccc(Cl)c(F)c1)C(=O)NC1(c2ccccc2)CCCC1` [Compound 12, (E)-3-(4-Chloro-3-fluorophenyl)-2-cyano-N-(1-phenylcyclopentyl)acrylamide], the results for the inhibition at 5 µM in assay [1] and in assay [2] were 25 to 50% and less than 25%, respectively. For the same molecule, the “PARP cleavage % Inhibition” value in assay [3] is recorded as “C (C is 25% to 50% inhibition)”.
Consider `N#C/C(=C\c1ncc(Br)cc1Br)C(=O)NC1(c2ccc(-c3ccc(N4CCOCC4)nc3)cc2)CCCC1` [Compound 51, (E)-2-cyano-3-(3,5-dibromopyridin-2-yl)-N-(1-(4-(6-morpholinopyridin-3-yl)phenyl)cyclopentyl)acrylamide], for which the inhibition at 5 µM in assay [1] and in assay [2] was 25 to 50% throughout. Besides, the “PARP cleavage % Inhibition” value in assay [3] is listed as “A (A is ≧75% inhibition)”.
For `N#C/C(=C\c1ncc(Br)cc1Br)C(=O)NC1(c2ccccc2)CCOCC1` [Compound 24, (E)-2-Cyano-3-(3,5-dibromopyridin-2-yl)-N-(4-phenyltetrahydro-2H-pyran-4-yl)acrylamide], the inhibition at 5 µM in assay [1] was no less than 75%; in assay [2], 50 to 75%. The “PARP cleavage % Inhibition” value in assay [3] is given as “A (A is ≧75% inhibition)”.

As a reminder, the inhibition is the share of the control response that was lost under treatment. Higher therefore signals a strong effect.

The values are drawn from patent publication US20170088520A1, “DEUBIQUITINASE INHIBITORS” (PharmAkea, Inc., priority 2014, published 2017).
